Data set [1] in a line: Hemolysis assay, 50% lysis of RBC's. The class given is cell-based, human. As to conditions: 0.25% suspension of human erythrocytes (RBCs). The method, then:
(§1) The biological activities of these peptides were measured using human erythrocytes and E. coli as models for mammalian and bacterial cells, respectively. Hemolysis was monitored in 10 mM Tris, 150 mM NaCl, pH 7.0, while the bacterial assay was conducted in minimal media M9 (Table 1); both of these solutions are sufficiently transparent to allow CD and ultracentrifugation measurements (supplementary material). Under the assay conditions, the peptides gave CD spectra similar to those in Tris buffer, with the exception of H-(β^3-HLeu-β^3-HLys-β^3-HLeu)n-OH, n=5 and 6.
(§2) ∇in M9 medium (data from Hamuro et al., ref. 5) # In M9 medium.+Hemolysis experiments were performed by incubating a 0.25% suspension of human RBc's in 10 mM Tris buffer containing […] at pH 7.0 with varying amounts of peptide. The hemolytic dose required to lyse 50% of the RBC's is reported as the HD50.
(§3) Hemolysis experiments were carried out by incubating 0.25% suspension of human erythrocytes (RBC's) with peptides of different concentrations in 150 mM sodium choloride, 10 mM Tris buffer, pH 7.0. The sample was prepared by combining 400 μL of the RBC suspension and […] of the peptide solution. After incubated the sample at 37— C. for 1 hour, the sample was centrifuged at 14,000 rpm for 5 min, and the OD414 of the supernatant was measured. Mellitin (50 μM) was used to get 100% hemolysis. The hemolytic IC50 was obtained by plotting hemolysis percentage vis. peptide concentration, and the concentration required for 50% hemolysis was determined from the smooth curve-fitted graph.
(§4) The activity and selectivity of peptide 1 and peptide 2 were examined by antibacterial assay and hemolysis experiments. E. Coli and human erythrotytes (RBC) were used as models for bacterial cell and mammalian cell, respectively. The peptide concentration required for 50% bacterial growth suppression (IC50), and peptide concentration required for 50% RBC lysis (HD50) are listed in Table 3. […] The antibacterial activities of peptide 1 and peptide 2 are about the same except peptide 2 has slightly lower IC50. Similar trend has been observed in the previous study, that longer peptide tends to have higher activity. However, the difference in IC50 is much smaller for this series of peptide than the previously studied ones. Antibacterial peptide with good selectivity is usually represented by its low hemolysis ability. […] The HD50 is 670 μM for peptide 1 and 240 μM for peptide 2, which gives a selectivity of 111 for peptide 1 and 60 for peptide 2.

Another data set has as its system K91 E. coli. The data set is classed as cell-based. The conditions noted are these: K91, 9 h, pH 7.4. How it is done: as §1
Antibacterial assay was performed by incubation of K 91 E. coli and peptide of different concentrations in minimal media, at pH 7.4. The peptide solution (50 μL) and K 91 E. coli culture (20 μL, grown in minimal media for 24 hr-36 hr) were mixed with 1 mL minimal media. […] The peptide dose required for 50% suppress of bacterial growth was obtained from the smooth fitted OD600 vs. log[peptide] curve.
as §4

Data set [2] relates to human erythrocytes (RBC's). Briefly: Hemolysis assay, 50% lysis of RBC's. The conditions noted are these: pH 7. The data set is classed as cell-based. How it is done: as §1, §2, §3, §4
For data set [3] the following is noted: In LB medium (data from Oh et al.); cited from earlier work.
Another data set has as its system micF-lux fusion. Put plainly: Stress-induced response assay, induction of micF-lux fusion. The data set is classed as cell-based. As to conditions: Table 4; regulatory gene Rob. How it is done: (§5) Stress-induced response and growth inhibition assays were carried out on samples of four of the β-peptide and compared to known polycationic peptides.
(§6) Polymyxin B was tested both rich, LB, medium and defined, M9, medium. The other natural peptides were tested in LB medium.
(§7) The β-peptides were tested in M9 medium. * In LB medium (data from Oh et al. Biochem. Biophys. Acta. 2000,1463: 43-54)
(§8) However, similar to the magainins, no induction of the micF-lux fusion was observed. Also, the minimum inhibitory concentrations (MIC's) were determined to be higher than those reported in the published manuscript.
(§9) Samples of these β-peptides 1 and 2 were evaluated in the stress-induced response assays.
(§10) The biolumenescence data result from test carried out according to U.S. Pat. No. 5,683,868, Highly Sensitive Method For Detecting Environmental Insults, issued Nov. 4, 1997 to LaRossa et al., the entire contents of the disclosure of are hereby incorporated by reference, The tests described in this patent permit antibacterial properties of peptides or any other materials to be assessed. […] Along these lines, FIG. 5 illustrates a relationship between relative light units and minutes of exposure of bacteria to the various materials in the legend. P×B represents polymyxin, a known antibacterial material. In the graph, a decrease in RULs corresponds to a decrease in bacteria. […]

The next data set deals with osmY-lux fusion. Briefly: Stress-induced response assay, induction of osmY-lux fusion. The conditions noted are these: Table 4; stress sensed osmotic shock. The data set is classed as cell-based. The method, then:
as §5, §6, §7, §8, §9, §10

Here are results for 18 compounds from patent US6677431B2, “Design, preparation, and properties of antibacterial β-peptides” (The Trustees of the University of Pennsylvania, priority 1999, dated 2004).

Read-outs that look alike come from different tables or passages of the source. No end group written: not given here.

For orientation: IC50 means the concentration that inhibits the measured activity by half. A high value points to weaker potency in that assay.

As to `CC(C)C[C@@H](CC(=O)O)NC(=O)C[C@H](CCCCN)NC(=O)C[C@@H](NC(=O)C[C@H](CC(C)C)NC(=O)C[C@H](CCCCN)NC(=O)C[C@@H](NC(=O)OCC1c2ccccc2-c2ccccc21)C(C)C)C(C)C` [Fmoc-(β^3-HVal-β^3-HLys-β^3-HLeu)2-OH, Fmoc-(b^3-HVal-b^3-HLys-b^3-HLeu)2-OH], the HC50 at 1 h in data set [1] (human, pH 7) was above 100 µM. In the data set on K91 E. coli, the IC50 was above 100 µM.

For the compound `CC(C)C[C@@H](CC(=O)O)NC(=O)C[C@H](CCCCN)NC(=O)C[C@@H](NC(=O)C[C@H](CC(C)C)NC(=O)C[C@H](CCCCN)NC(=O)C[C@@H](NC(=O)C[C@H](CC(C)C)NC(=O)C[C@H](CCCCN)NC(=O)C[C@@H](NC(=O)OCC1c2ccccc2-c2ccccc21)C(C)C)C(C)C)C(C)C` [Fmoc-(β^3-HVal-β^3-HLys-β^3-HLeu)3-OH, Fmoc-(b^3-HVal-b^3-HLys-b^3-HLeu)3-OH], the HD50+ in data set [2] came to 6.3 µM. Besides, the HC50 at 1 h in data set [1] (human, pH 7) turned out to be 6.3 µM. This compound also returned an IC50 with K91 E. coli of 15 µM. Turning to `CC(C)C[C@@H](CC(=O)O)NC(=O)C[C@H](CCCCN)NC(=O)C[C@@H](NC(=O)C[C@H](CC(C)C)NC(=O)C[C@H](CCCCN)NC(=O)C[C@@H](NC(=O)C[C@H](CC(C)C)NC(=O)C[C@H](CCCCN)NC(=O)C[C@@H](NC(=O)C[C@H](CC(C)C)NC(=O)C[C@H](CCCCN)NC(=O)C[C@@H](NC(=O)OCC1c2ccccc2-c2ccccc21)C(C)C)C(C)C)C(C)C)C(C)C` [Fmoc-(β^3-HVal-β^3-HLys-β^3-HLeu)4-OH, Fmoc-(b^3-HVal-b^3-HLys-b^3-HLeu)4-OH], the HC50 at 1 h in data set [1] (human, pH 7) was determined as 0.31 µM. The concentration for half-maximal inhibition (IC50) with K91 E. coli worked out at 1.5 µM. Turning to `CC(C)C[C@H](N)CC(=O)N[C@@H](CCCCN)CC(=O)N[C@H](CC(=O)N[C@H](CC(=O)N[C@@H](CCCCN)CC(=O)N[C@H](CC(=O)O)CC(C)C)CC(C)C)CC(C)C` [H-(β^3-HLeu-β^3-HLys-β^3-HLeu)2-OH, H-(b^3-HLeu-b^3-HLys-b^3-HLeu)2-OH], in data set [1] (human, pH 7), the HC50 at 1 h was above 100 µM. Moreover, in the data set with K91 E. coli, the IC50 is above 100 µM.

For the compound `CC(C)C[C@H](N)CC(=O)N[C@@H](CCCCN)CC(=O)N[C@H](CC(=O)N[C@H](CC(=O)N[C@@H](CCCCN)CC(=O)N[C@H](CC(=O)N[C@H](CC(=O)N[C@@H](CCCCN)CC(=O)N[C@H](CC(=O)O)CC(C)C)CC(C)C)CC(C)C)CC(C)C)CC(C)C` [H-(β^3-HLeu-β^3-HLys-β^3-HLeu)3-OH, H-(b^3-HLeu-b^3-HLys-b^3-HLeu)3-OH], in data set [1] (human, pH 7), the HC50 at 1 h is above 100 µM. The same compound came in with an IC50 with K91 E. coli of 35 µM. As to `CC(C)C[C@H](N)CC(=O)N[C@@H](CCCCN)CC(=O)N[C@H](CC(=O)N[C@H](CC(=O)N[C@@H](CCCCN)CC(=O)N[C@H](CC(=O)N[C@H](CC(=O)N[C@@H](CCCCN)CC(=O)N[C@H](CC(=O)N[C@H](CC(=O)N[C@@H](CCCCN)CC(=O)N[C@H](CC(=O)O)CC(C)C)CC(C)C)CC(C)C)CC(C)C)CC(C)C)CC(C)C)CC(C)C` [H-(β^3-HLeu-β^3-HLys-β^3-HLeu)4-OH, H-(b^3-HLeu-b^3-HLys-b^3-HLeu)4-OH], in data set [2], the HD50+ turned out to be 2.6 µM. Besides, the HC50 at 1 h in data set [1] (human, pH 7) was 2.6 µM. Also, in the data set on K91 E. coli, the IC50 came out at 1.7 µM. `CC(C)C[C@H](N)CC(=O)N[C@@H](CCCCN)CC(=O)N[C@H](CC(=O)N[C@H](CC(=O)N[C@@H](CCCCN)CC(=O)N[C@H](CC(=O)N[C@H](CC(=O)N[C@@H](CCCCN)CC(=O)N[C@H](CC(=O)N[C@H](CC(=O)N[C@@H](CCCCN)CC(=O)N[C@H](CC(=O)N[C@H](CC(=O)N[C@@H](CCCCN)CC(=O)N[C@H](CC(=O)O)CC(C)C)CC(C)C)CC(C)C)CC(C)C)CC(C)C)CC(C)C)CC(C)C)CC(C)C)CC(C)C` [H-(β^3-HLeu-β^3-HLys-β^3-HLeu)5-OH, H-(b^3-HLeu-b^3-HLys-b^3-HLeu)5-OH] had an HD50+ in data set [2] of 0.23 µM. The same compound yielded an HC50 at 1 h in data set [1] (human, pH 7) of 0.23 µM. Turning to `CC(C)C[C@H](N)CC(=O)N[C@@H](CCCCN)CC(=O)N[C@H](CC(=O)N[C@H](CC(=O)N[C@@H](CCCCN)CC(=O)N[C@H](CC(=O)N[C@H](CC(=O)N[C@@H](CCCCN)CC(=O)N[C@H](CC(=O)N[C@H](CC(=O)N[C@@H](CCCCN)CC(=O)N[C@H](CC(=O)N[C@H](CC(=O)N[C@@H](CCCCN)CC(=O)N[C@H](CC(=O)N[C@H](CC(=O)N[C@@H](CCCCN)CC(=O)N[C@H](CC(=O)O)CC(C)C)CC(C)C)CC(C)C)CC(C)C)CC(C)C)CC(C)C)CC(C)C)CC(C)C)CC(C)C)CC(C)C)CC(C)C` [H-(β^3-HLeu-β^3-HLys-β^3-HLeu)6-OH, H-(b^3-HLeu-b^3-HLys-b^3-HLeu)6-OH], in data set [2], the “HD50+” value is 0.081. This compound also gave an HC50 at 1 h in data set [1] (human, pH 7) of 0.081 µM.

For `CC(C)C[C@@H](CC(=O)O)NC(=O)C[C@H](CCCCN)NC(=O)C[C@@H](NC(=O)C[C@H](CC(C)C)NC(=O)C[C@H](CCCCN)NC(=O)C[C@@H](N)C(C)C)C(C)C` [H-(β^3-HVal-β^3-HLys-β^3-HLeu)2-OH, H-(b^3-HVal-b^3-HLys-b^3-HLeu)2-OH], the HC50 at 1 h in data set [1] (human, pH 7) is above 100 µM. Also, the IC50 in the data set with K91 E. coli was above 100 µM.

Regarding `CC(C)C[C@@H](CC(=O)O)NC(=O)C[C@H](CCCCN)NC(=O)C[C@@H](NC(=O)C[C@H](CC(C)C)NC(=O)C[C@H](CCCCN)NC(=O)C[C@@H](NC(=O)C[C@H](CC(C)C)NC(=O)C[C@H](CCCCN)NC(=O)C[C@@H](N)C(C)C)C(C)C)C(C)C` [H-(β^3-HVal-β^3-HLys-β^3-HLeu)3-OH, H-(b^3-HVal-b^3-HLys-b^3-HLeu)3-OH], the HC50 at 1 h in data set [1] (0.25% human erythrocytes, 10 mM Tris, 150 mM NaCl, pH 7.0, 1 h at 37° C., read-out: Hemolysis HD50) came to 86 µM. Also, the IC50 in the data set on K91 E. coli was found to be 41 µM. For the compound `CC(C)C[C@@H](CC(=O)O)NC(=O)C[C@H](CCCCN)NC(=O)C[C@@H](NC(=O)C[C@H](CC(C)C)NC(=O)C[C@H](CCCCN)NC(=O)C[C@@H](NC(=O)C[C@H](CC(C)C)NC(=O)C[C@H](CCCCN)NC(=O)C[C@@H](NC(=O)C[C@H](CC(C)C)NC(=O)C[C@H](CCCCN)NC(=O)C[C@@H](N)C(C)C)C(C)C)C(C)C)C(C)C` [H-(β^3-HVal-β^3-HLys-β^3-HLeu)4-OH, H-(b^3-HVal-b^3-HLys-b^3-HLeu)4-OH], the HC50 at 1 h in data set [1] (human, pH 7) is 4.2 µM. In addition, the IC50 with K91 E. coli turned out to be 2.1 µM. With “Cecropin A (KWKLFKKIEKVGQNIRDGIIKAGPAVAVVGQATQIAK; ends and bridges not checked; UniProt P01507 27-63, looked up) [known polycationic natural peptide]”, in data set [3], the “MIC*” value was 0.1 µM. For “Cecropin B (KWKVFKKIEKMGRNIRNGIVKAGPAIAVLGEAKAL; ends and bridges not checked; UniProt P01508 27-61, looked up) [known polycationic natural peptide]”, the “MIC*” value in data set [3] was 0.1 µM.

In the case of “Magainin 1 (GIGKFLHSAGKFGKAFVGEIMKS; Magainin-1; UniProt P11006 37-59, looked up) [known polycationic natural peptide (frog skin)]”, the “MIC*” value in data set [3] is 12 µM.

For the compound Magainin 2, the “MIC*” value in data set [3] is 5 µM. Polymyxin B: the “MIC*” value in data set [3] is 0.2 µM.

With Polymyxin E, the “MIC*” value in data set [3] was 0.15 µM.

Turning to Polymyxin [reference compound], in the data set with micF-lux fusion, the “micF gene fusion response” value was “yes”. The “osmY gene fusion response” value in the data set on osmY-lux fusion is “yes”.
